Read-outs that look alike come from different tables or passages of the source. One block for each molecule: values may come before it.
Columns and labels:
[1] = tested on: Key Broadleaf Weed and Crop Species; assay: Post-emergent Test II herbicidal activity (Table 5); format: in vivo; details: post-emergence, 336 h, post-emergent, 14 days after application; for pest or weed control at 70 g/ha: application rate 70 g ai/ha; for pest or weed control at 140 g/ha: application rate 140 g ai/ha
Summary of the method: (§1)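 Foliar application at 187 L/ha to greenhouse-grown seedlings (first or second true leaf); subirrigation thereafter. Visual 0–100% injury at 14 d relative to untreated plants.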

[2] = tested on: Key Grass and Sedge Weeds as well as Grass Crops; assay: Post-emergent Test II herbicidal activity (Table 6); format: in vivo; details: post-emergence, 336 h; for pest or weed control at 70 g/ha: application rate 70 g ai/ha; for pest or weed control at 140 g/ha: application rate 140 g ai/ha
Summary of the method: as §1

[3] = ABUTH: velvetleaf (Abutilon theophrasti), read-out: Visual Growth Reduction (%) 14 Days After Application, ABUTH
[4] = AMARE: redroot pigweed (Amaranthus retroflexus), read-out: Visual Growth Reduction (%) 14 Days After Application, AMARE
[5] = BRSNN: oilseed-rape, canola (Brassica napus), read-out: Visual Growth Reduction (%) 14 Days After Application, BRSNN
[6] = CHEAL: lambsquarters (Chenopodium album), read-out: Visual Growth Reduction (%) 14 Days After Application, CHEAL
[7] = EPHHL: wild poinsettia (Euphorbia heterophylla), read-out: Visual Growth Reduction (%) 14 Days After Application, EPHHL
[8] = HELAN: sunflower (Helianthus annuus), read-out: Visual Growth Reduction (%) 14 Days After Application, HELAN
[9] = VIOTR: wild pansy (Viola tricolor), read-out: Visual Growth Reduction (%) 14 Days After Application, VIOTR
[10] = CYPES: yellow nutsedge (Cyperus esculentus), read-out: Visual Growth Reduction (%) 14 Days After Application, CYPES
[11] = DIGSA: crabgrass (Digitaria sanguinalis), read-out: Visual Growth Reduction (%) 14 Days After Application, DIGSA
[12] = ECHCG: barnyardgrass (Echinochloa crus-galli), read-out: Visual Growth Reduction (%) 14 Days After Application, ECHCG
[13] = ORYSA: rice (Oryza sativa), read-out: Visual Growth Reduction (%) 14 Days After Application, ORYSA
[14] = SETFA: giant foxtail (Setaria faberi), read-out: Visual Growth Reduction (%) 14 Days After Application, SETFA
[15] = SORVU: grain sorghum (Sorghum vulgare), read-out: Visual Growth Reduction (%) 14 Days After Application, SORVU
[16] = TRZSS (wheat, Triticum aestivum), read-out: Visual Growth Reduction (%) 14 Days After Application, TRZSS
[17] = ZEAMX: maize, corn (Zea mays), read-out: Visual Growth Reduction (%) 14 Days After Application, ZEAMX

melting point: 143.7 to 145.5 °C
SMILES: COc1c(N)nc(-c2cc(F)c(C(F)F)cc2F)nc1C(=O)O [Compound 203]
pest or weed control at 70 g/ha [1, 3]: 30 to 44%
pest or weed control at 140 g/ha [1, 3]: 30 to 44%
pest or weed control at 70 g/ha [1, 4]: 45 to 59%
pest or weed control at 140 g/ha [1, 4]: 95 to 100%
pest or weed control at 70 g/ha [1, 5]: 30 to 44%
pest or weed control at 140 g/ha [1, 5]: 45 to 59%
pest or weed control at 70 g/ha [1, 6]: 85 to 94%
pest or weed control at 140 g/ha [1, 6]: 95 to 100%
pest or weed control at 70 g/ha [1, 7]: 95 to 100%
pest or weed control at 140 g/ha [1, 7]: 95 to 100%
pest or weed control at 70 g/ha [1, 8]: 60 to 74%
pest or weed control at 140 g/ha [1, 8]: 75 to 84%
pest or weed control at 70 g/ha [1, 9]: 0 to 29%
pest or weed control at 140 g/ha [1, 9]: 30 to 44%
pest or weed control at 70 g/ha [2, 10]: 0 to 29%
pest or weed control at 140 g/ha [2, 10]: 75 to 84%
pest or weed control at 70 g/ha [2, 11]: 0 to 29%
pest or weed control at 140 g/ha [2, 11]: 0 to 29%
pest or weed control at 70 g/ha [2, 12]: 0 to 29%
pest or weed control at 140 g/ha [2, 12]: 0 to 29%
pest or weed control at 70 g/ha [2, 13]: 0 to 29%
pest or weed control at 140 g/ha [2, 13]: 0 to 29%
pest or weed control at 70 g/ha [2, 14]: 0 to 29%
pest or weed control at 140 g/ha [2, 14]: 75 to 84%
pest or weed control at 70 g/ha [2, 15]: 0 to 29%
pest or weed control at 140 g/ha [2, 15]: 0 to 29%
pest or weed control at 70 g/ha [2, 16]: 0 to 29%
pest or weed control at 140 g/ha [2, 16]: 0 to 29%
pest or weed control at 70 g/ha [2, 17]: 0 to 29%
pest or weed control at 140 g/ha [2, 17]: 0 to 29%

melting point: 116.5 to 118.8 °C
SMILES: COC(=O)c1nc(-c2cc(F)c(C)cc2F)c(F)c(N)c1Cl [Compound 184]
pest or weed control at 70 g/ha [1, 3]: 95 to 100%
pest or weed control at 140 g/ha [1, 3]: 95 to 100%
pest or weed control at 70 g/ha [1, 4]: 85 to 94%
pest or weed control at 140 g/ha [1, 4]: 95 to 100%
pest or weed control at 70 g/ha [1, 5]: 85 to 94%
pest or weed control at 140 g/ha [1, 5]: 95 to 100%
pest or weed control at 70 g/ha [1, 6]: 85 to 94%
pest or weed control at 140 g/ha [1, 6]: 95 to 100%
pest or weed control at 70 g/ha [1, 7]: 85 to 94%
pest or weed control at 140 g/ha [1, 7]: 95 to 100%
pest or weed control at 70 g/ha [1, 8]: 95 to 100%
pest or weed control at 140 g/ha [1, 8]: 95 to 100%
pest or weed control at 70 g/ha [1, 9]: 0 to 29%
pest or weed control at 140 g/ha [1, 9]: 0 to 29%
pest or weed control at 70 g/ha [2, 10]: 0 to 29%
pest or weed control at 140 g/ha [2, 10]: 0 to 29%
pest or weed control at 70 g/ha [2, 11]: 0 to 29%
pest or weed control at 140 g/ha [2, 11]: 0 to 29%
pest or weed control at 70 g/ha [2, 12]: 45 to 59%
pest or weed control at 140 g/ha [2, 12]: 60 to 74%
pest or weed control at 70 g/ha [2, 13]: 0 to 29%
pest or weed control at 140 g/ha [2, 13]: 0 to 29%
pest or weed control at 70 g/ha [2, 14]: 0 to 29%
pest or weed control at 140 g/ha [2, 14]: 0 to 29%
pest or weed control at 70 g/ha [2, 15]: 0 to 29%
pest or weed control at 140 g/ha [2, 15]: 30 to 44%
pest or weed control at 70 g/ha [2, 16]: 0 to 29%
pest or weed control at 140 g/ha [2, 16]: 0 to 29%
pest or weed control at 70 g/ha [2, 17]: 0 to 29%
pest or weed control at 140 g/ha [2, 17]: 0 to 29%
